Results on 1 compound are retold here after US6492338B1, “Therapeutic agents” (Takara Shuzo Co., Ltd., priority 1998, dated 2002).

The test system of experiment [1] is alcohol dehydrogenase (ADH). In words: ADH inhibitory activity, NAD/ethanol, absorbance at 340 nm. It is filed as biochemical. The note with it: final concentration 10.8 μg/ml (IC50 for AR activity). The protocol:
Next, 2,5-dihydroxytetrahydro-2-furancarboxylic acid was added to an ADH reaction system to determine the ADH inhibitory activity.
A commercially available lyophilized product (Nacalai Tesque, code 012-83) was dissolved in water for use as ADH. NAD (Nacalai Tesque) as a hydrogen donor and ethanol (Nacalai Tesque) as a substrate for the enzyme were used.
The ADH activity was measured as follows.
50 μl of water, 20 μl of 3 mM aqueous NAD solution and 10 μl of enzyme solution were added to 100 μl of 200 mM phosphate buffer (pH 6.2). 10 μl of sterile pure water was further added to the mixture. After 10 μl of 60% ethanol was added thereto, the change in absorbance at 340 nm was monitored at room temperature for 3 minutes. The enzymatic activity was determined on the basis of the change in absorbance per minute.
Next, aqueous solution of 2,5-dihydroxytetrahydro-2-furancarboxylic acid at a final concentration of 10.8 μg/ml and sterile pure water were added to the reaction system as described above in place of 10 μl of sterile pure water. The enzymatic activity was then determined as described above. The ADH enzymatic activity inhibition rate was calculated according to the above-mentioned equation based on the enzymatic activity.

Another experiment has as its target T1, Aldose reductase (AR) (Homo sapiens, UniProt P15121).
T1 construct: purchased Wako Pure Chemical Industries 012-13991
Nature of the experiment: AR (aldose reductase) inhibitory activity, NADPH/methylglyoxal, absorbance at 340 nm. It is filed as biochemical. The method, then: 2,5-dihydroxytetrahydro-2-furancarboxylic acid was added to an AR reaction system to determine the AR inhibitory activity.
NADPH (Nacalai Tesque) as a hydrogen donor and methylglyoxal (Nacalai Tesque) as a substrate for the enzyme were used. A commercially available enzyme solution (Wako Pure Chemical Industries, code 012-13991) was diluted. for use as AR.
The AR activity was measured as follows.
40 μl of sterile pure water, 20 μl of 1 mM aqueous NADPH solution and 10 μl of enzyme dilution were added to 100 μl of 200 mM phosphate buffer (pH 6.2). 10 μl of sterile pure water was further added to the mixture. After 20 μl of 100 mM aqueous methylglyoxal solution was added thereto, the change in absorbance at 340 nm was monitored at room temperature for 3 minutes. The enzymatic activity was determined on the basis of the change in absorbance per minute. Next, aqueous solution of 2,5-dihydroxytetrahydro-2-furancarboxylic acid at a varying concentration was added to the reaction system as described above in place of 10 μl of sterile pure water. The enzymatic activity was then determined as described above.
The AR inhibitory activity of 2,5-dihydroxytetrahydro-2-furancarboxylic acid was determined based on the enzymatic activity inhibition rate calculated according to the following equation:
Enzymatic activity inhibition rate (%)={1-(enzymatic activity with the addition of aqueous 2,5-dihydroxytetrahydro-2-furancarboxylic acid solution)/(enzymatic activity with the addition of water)}×100.

Molecules are shown by their SMILES.

`O=C(O)C1(O)CCC(O)O1` (stereo not drawn) [2,5-dihydroxytetrahydro-2-furancarboxylic acid]: in experiment [1], the “ADH activity inhibition rate” value is on record as 7.1%. Moreover, the IC50 on Aldose reductase (AR) (calculated from concentration and AR activity inhibition rate of Table 1, read-out: concentration in the enzymatic reaction mixture that results in the activity inhibition rate of 50% (IC50), AR (converted)) is around 72.9 µM. Besides, the “Activity inhibition rate (AR)” value at Aldose reductase (AR) (concentration in enzymatic reaction system 0.5 μg/ml) worked out at 8.1%; at Aldose reductase (AR) (concentration in enzymatic reaction system 5 μg/ml), 34.8%; at Aldose reductase (AR) (concentration in enzymatic reaction system 50 μg/ml), 81.6%; at Aldose reductase (AR) (concentration in enzymatic reaction system 500 μg/ml) it was 96.3%.
